From paper PMC11570809, “Novel N-phenyl-2-(aniline) benzamide hydrochloride salt development for colon cancer therapy” (Frontiers in Pharmacology, 2024)
Where a name gives a salt, the structure may show the parent alone. Read-outs that look alike come from different tables or passages of the source.

Columns and labels:
[1] = Thermodynamic solubility in water (HPLC); assay type: physicochemical; conditions: for Solubility, equivalent molar concentration: water
Procedure: The thermodynamic solubility of N53·HCl in water was determined by high-performance liquid chromatography (Waterage, Alliance HPLC E2695, United States). The HPLC mobile phases were water (0.1% formic acid) and methanol separated by gradient chromatography at 0.5 mL/min. The chromatographic conditions were followed. Mobile phase: methanol: H2O = 10:90; 15 min; wavelength: 254 nm; temperature: 25°C. N53 and N53·HCl were dissolved in methanol to form a gradient concentration standard solution (0.32, 1.6, 8, 40, 200 and 1,000 μg/mL). The standard solutions were scanned at 254 nm and the absorption area was recorded against the concentration curve. Saturated solutions of the compounds were prepared by magnetic stirring at 37°C for 4 h in deionized water in small volumes and the solid compounds were removed using Millipore 0.45 μm filters. The saturated solution was then scanned at 254 nm. The thermodynamic solubility in water was calculated from the absorption area and curve.

Topo I = molecular target: T1, Topo I (Bos taurus, UniProt F1MN93); assay: Topo I-mediated DNA relaxation assay; assay type: biochemical; conditions: relaxation of supercoiled pBR322
T1 construct: purchased Takara Biotechnology, Dalian, China
T1 sequence (F1MN93 1-767): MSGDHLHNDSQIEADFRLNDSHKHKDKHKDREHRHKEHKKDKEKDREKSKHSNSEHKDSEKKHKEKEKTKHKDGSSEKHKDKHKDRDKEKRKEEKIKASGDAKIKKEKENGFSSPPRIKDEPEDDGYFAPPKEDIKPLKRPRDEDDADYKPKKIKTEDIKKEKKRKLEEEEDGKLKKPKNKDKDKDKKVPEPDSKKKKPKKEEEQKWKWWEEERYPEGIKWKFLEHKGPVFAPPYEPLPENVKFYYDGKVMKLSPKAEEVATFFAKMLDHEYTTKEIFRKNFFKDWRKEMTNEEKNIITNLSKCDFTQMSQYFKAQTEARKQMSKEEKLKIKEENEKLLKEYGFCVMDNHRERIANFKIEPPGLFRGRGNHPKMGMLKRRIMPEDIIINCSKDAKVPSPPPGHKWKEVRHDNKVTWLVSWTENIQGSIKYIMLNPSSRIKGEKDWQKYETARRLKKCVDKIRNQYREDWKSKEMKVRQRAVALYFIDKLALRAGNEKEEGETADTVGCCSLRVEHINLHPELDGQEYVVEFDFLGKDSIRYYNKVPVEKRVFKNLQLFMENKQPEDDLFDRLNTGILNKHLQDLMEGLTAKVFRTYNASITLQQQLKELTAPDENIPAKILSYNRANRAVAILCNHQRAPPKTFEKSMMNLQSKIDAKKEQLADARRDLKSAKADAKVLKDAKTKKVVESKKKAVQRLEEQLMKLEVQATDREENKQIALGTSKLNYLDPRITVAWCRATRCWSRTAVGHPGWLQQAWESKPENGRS
Procedure: In brief, 2 μL Topo I Assay Buffer, 2 μL 0.1% BSA solution, 1 μL 1 U/μL Topo I solution, 0.2 μL test compound solution, and 0.5 μL DNA solution (0.25 μg) were added orderly with the corresponding volume of ultrapure water to make the above system volume 20 μL (Takara Biotechnology, Dalian, China). The above system was incubated at 37°C, the incubation continued for 45 min, and then 10 μL of a mixture of equal phenol and chloroform organic solvent was added for extraction to terminate the reaction. The aqueous phase was separated by centrifugation, the corresponding volume of 6 × DNA loading buffer was added, and then 0.8% agarose gel and 1 × TAE electrophoresis solution were used for electrophoresis at 110 V for 1 h. After electrophoresis, the gel was placed in a 0.5 μg/mL of ethidium bromide (EB) solution for 30 min, then recorded and photographed at 302 nm wavelength.

SK-Hep-1 = assay: MTT anti-proliferation assay, SK-Hep-1; assay type: cell-based, human; conditions: read-out: IC50 ± SD SK-Hep-1
HuH7 = assay: MTT anti-proliferation assay, HuH7; assay type: cell-based, human; conditions: 72 h, read-out: IC50 ± SD HuH7
HepG2 = assay: MTT anti-proliferation assay, HepG2; assay type: cell-based, human; conditions: read-out: IC50 ± SD HepG2
RKO = assay: MTT anti-proliferation assay, RKO; assay type: cell-based, human; conditions: 72 h, read-out: IC50 ± SD RKO
Procedure: The anti-proliferation activities of synthesized compounds to colon cancer cell lines were measured by the MTT (3-[4,5-dimethyl-2-thiazolyl]-2,5-diphenyl-2H-tet razolium bromide) assay. First, the cell suspension was prepared by trypsin and the corresponding medium, cells were diluted to 5 × 10^5 cells/mL, and 96-well plates were added 200 μL per well. The plates were maintained at 37°C in a humidified atmosphere containing 5% CO2 overnight. Then compounds at gradient concentrations were added to cells in the logarithmic phase to make the final concentration at 0.5, 1, 2, 4, 8, 16, and 32 μM. The cells were treated with tested compounds for 72 h, and the growth curve assay was tested in 24 h. When the time was up, 20 μL of MTT solution (5 mg/mL in PBS) was added into each well to incubate for 4 h at 37°C. Then the supernatant liquid was removed, 150 μL DMSO was added into every well to dissolve formazan crystals and read the absorbance at 570 nm by Spark microplate spectrophotometer (Tecan, Swiss). The IC50 values were analyzed by IBM SPASS Statistics 25.0 software. The data are all derived from three parallel experiments (n = 3) and expressed as mean ± SD.

HT29 xenograft = assay: HT29 nude xenograft model; assay type: in vivo, BALB/c nude mice; conditions: 15 mg/kg once a day p.o., 13 days
Procedure: HT29 cells in the logarithmic growth phase were digested to a cell density of 8 × 10^6/mL, and 100 μL suspension of HT29 was injected subcutaneously in the right axilla of nude mice. The dose selection is based on previously described ([Xiaoling Hu et al., 2022]). When the average tumor volume reached about 300 mm^3, they were randomly divided into 3 groups: N53·HCl (15 mg/kg once a day, p.o.), N53 (15 mg/kg once a day, p.o.), control group. 15 mg/kg N53 and N53·HCl dissolved in normal saline containing 2.5% polyoxyethylene castor oil and 2.5% DMSO were administrated by oral medications, while the Control group was given an equal volume of blank solvent. The tumor volume was measured with a vernier caliper every other days and calculated the tumor volume according to Equation 1. After 13 days of treatment, the mice were sacrificed, the tumors were removed, the tumor weight was weighed, and the tumor growth inhibition rate was calculated. The calculation formula of tumor growth inhibition rate (TGI%) was calculated using Equation 2. The corresponding equations were as follows: Tumor volume mm^3=W^2×L/2 (1) TGI%=1−T−T0 / C−C0×100% (2)
In equations, W and L represent the width and length of the tumor respectively, T and C represent the average volume of the experiment group and control group at the end of the experiment. T0 and C0 represent […].

Row | SMILES | Solubility, equivalent molar concentration [1] | Inhibition rate (%) of Topo I (100 μM) (Topo I) | IC50 (SK-Hep-1; 72 h) | IC50 (HuH7) | IC50 (HepG2; 72 h) | IC50 (RKO) | Body weight versus control group (HT29 xenograft) | Tumor inhibition rate (TGI) (HT29 xenograft) | solubility at 4 h ([1]; deionized water, thermodynamic, 37°C, 4 h) | Water solubility ([1]; thermodynamic, deionized water, 37°C, 4 h) | IC50 (SK-Hep-1; Homo sapiens, SK-HEP1, 72 h) | IC50 (HepG2; Homo sapiens, HepG2, 72 h) | IC50 (RKO; Homo sapiens, RKO)
1 | Cc1c(Cl)cccc1Nc1ccccc1C(=O)Nc1ccc(N2CCN(C)CC2)cc1 [Compound N53, 2-((3-chloro-2-methylphenyl)amino)-N-(4-(4-methylp-iperazin-1-yl)phenyl)benzamide] | < 0.74 µM | 11.7% | 5.66 ± 0.47 µM | 3.67 ± 0.38 µM | 2.31 ± 0.09 µM | 6.29 ± 0.54 µM | no significant difference in body weight | 34.7% | – | – | – | – | –
2 | Cc1c(Cl)cccc1Nc1ccccc1C(=O)Nc1ccc(N2CCN(C)CC2)cc1 [N53·HCl, 4-(4-(2-((3-chloro-2-methylphenyl)amino)ben-zamido)phenyl)-1-methylpiperazin-1-ium] | 1150 µM | 55.1% | – | 11.7 ± 0.75 µM | – | – | no significant difference in body weight | 53.7% | 540 µg/mL | 540 µg/mL | 8.18 µM | 4.12 ± 0.39 µM | 7.99 ± 0.85 µM
